According to US12516062B2, “Agricultural or horticultural insecticide or animal ectoparasite or endoparasite control agent each comprising an imidazopyridazine compound having a substituted cyclopropane-oxadiazole group or a salt thereof as active ingredient, and method for using the insecticide or the control agent” (NIHON NOHYAKU CO., LTD., priority 2019, dated 2026):

Assays:
Type in all cases: in vivo
Haemonchus contortus = test: Larval motility assay on Haemonchus contortus; conditions: 96 h, L1 stage larvae, 4 days, relative to DMSO only, read-out: percent motility inhibition
Description: Larval Motility Assay on Haemonchus contortus
DMSO diluted solutions of various compounds of the present invention were added at the final concentration of 50 ppm to the wells of a 96-well plate containing a predetermined conditioned medium. Twenty L1 stage larvae of H. contortus were introduced into each well of the 96-well plate. The plate was allowed to stand for 4 days, and then larval motility was examined. The percent motility inhibition in the wells of each treatment was calculated relative to the wells of treatment with DMSO only.

Dirofilaria immitis = test: Larval motility assay on Dirofilaria immitis; conditions: 72 h, read-out: percent motility inhibition
Description: Larval Motility Assay on Dirofilaria immitis
Five hundred L1 stage larvae of D. immitis were diluted in a predetermined conditioned medium and introduced into each well of a 96-well plate. DMSO diluted solutions of various compounds of the present invention were added at the final concentration of 50 ppm to the wells of the 96-well plate. The plate was allowed to stand for 3 days, and then larval motility was examined. The percent motility inhibition in the wells of each treatment was calculated relative to the wells of treatment with DMSO only.

Laodelphax striatellus = test: whole plant or invertebrate; conditions: 192 h, rice seedlings dipped 30 seconds, 3rd-instar larvae, 8 days after inoculation, read-out: insecticidal efficacy (corrected mortality rate), activity level
Plutella xylostella = test: whole plant or invertebrate; conditions: in Brassica rapa, 144 h, seedlings with laid eggs dipped about 30 seconds, 25° C., 6 days after dip treatment, read-out: insecticidal efficacy (corrected mortality rate), activity level
Rhipicephalus sanguineus = test: Assay for transdermal parasiticidal activity against nymphs of Rhipicephalus sanguineus; conditions: 48 h, read-out: mortality rate
Excerpt: Assay for Transdermal Parasiticidal Activity Against Nymphs of Rhipicephalus sanguineus
DMSO diluted solutions of various compounds of the present invention were individually diluted to the final concentration of 100 ppm with an acetone/triton mixture and applied to the inside of vented sample bottles. After overnight drying, ten nymphs of R. sanguineus were introduced into each bottle, and the mortality rate was examined two days later. Aberrant adults were regarded as the dead.

SMILES | inhibition at 50 ppm (Haemonchus contortus) | inhibition at 50 ppm (Dirofilaria immitis) | mortality at 500 ppm (Laodelphax striatellus) | mortality at 500 ppm (Plutella xylostella) | mortality at 100 ppm (Rhipicephalus sanguineus)
CCS(=O)(=O)c1cc(-c2noc(C3(C(F)(F)F)CC3)n2)cnc1-c1nc2cc(C(F)(F)C(F)(F)F)nnc2n1C [Compound 1-2, 3-(5-(ethylsulfonyl)-6-(3-methyl-6-pentafluoroethyl-3[ ]-imidazo[4,5-c]pyridazin-2-yl)pyridin-3-yl)-5-(1-trifluoromethylcyclopropyl)-1,2,4-oxadiazole] | ≥ 50% | ≥ 50% | 100% | 100% | ≥ 50%
CCS(=O)(=O)c1cc(-c2noc(C3CC3C)n2)cnc1-c1nc2cc(C(F)(F)C(F)(F)F)nnc2n1C (stereo not drawn) [Compound 1-1] | ≥ 50% | ≥ 50% | 100% | 100% | 
CCS(=O)(=O)c1cc(-c2noc(C3(c4ccccc4)CC3)n2)cnc1-c1nc2cc(C(F)(F)C(F)(F)F)nnc2n1C [Compound 1-3] | ≥ 50% | ≥ 50% | 100% | 100% | ≥ 50%
CCS(=O)(=O)c1cc(-c2noc(C3(C)CC3)n2)cnc1-c1nc2cc(C(F)(F)C(F)(F)F)nnc2n1C [Compound 1-4] | ≥ 50% | ≥ 50% | 100% | 100% | 
